The results in this text go back to paper PMC9655037, “Alternation of Organ-Specific Exposure in LPS-Induced Pneumonia Mice after the Inhalation of Tetrandrine Is Governed by Metabolizing Enzyme Suppression and Lysosomal Trapping” (International Journal of Molecular Sciences, 2022).

Series [1] can be described thus: Bidirectional transport in MOCK LLC-PK1 cells. The settings on record: pig. As to the method:
(§1) MDR1 expressing LLC-PK1 cells or MOCK LLC-PK1 cells were utilized to identify whether P-gp is involved in the efflux transport across the membrane barrier. Cells were cultured as described above. Cells were seeded at a density of 2 × 10^4 in Millicell® 24-well cell culture plates with a 6.5 mm insert (0.4 µm polycarbonate membrane) from Corning (Kennebunk, ME, USA) 7 days before the experiments. On the day of the experiment, transepithelial electrical resistance (TEER) was measured to assess monolayer integrity. After washing the cells twice with HBSS, transport experiments in either the apical-to-basolateral direction (A-B) or the basolateral-to-apical direction (B-A) were conducted. […] After incubating the plates at 37 °C for 2 h, samples from the receiving and donor wells (50 μL) were taken simultaneously. All the samples were stored at −40 °C for LC-MS/MS analysis.
(§2) In the bidirectional transport study in LLC-PK1 cells, the following equations were used to calculate Papp values and the MDR1 efflux ratio.

The target of a further series is MDR1 (P-gp) (Homo sapiens, UniProt P08183). The series is described as follows: in vitro. The procedure: as §1, §2
MDR1 (P-gp), sequence (P08183 whole entry): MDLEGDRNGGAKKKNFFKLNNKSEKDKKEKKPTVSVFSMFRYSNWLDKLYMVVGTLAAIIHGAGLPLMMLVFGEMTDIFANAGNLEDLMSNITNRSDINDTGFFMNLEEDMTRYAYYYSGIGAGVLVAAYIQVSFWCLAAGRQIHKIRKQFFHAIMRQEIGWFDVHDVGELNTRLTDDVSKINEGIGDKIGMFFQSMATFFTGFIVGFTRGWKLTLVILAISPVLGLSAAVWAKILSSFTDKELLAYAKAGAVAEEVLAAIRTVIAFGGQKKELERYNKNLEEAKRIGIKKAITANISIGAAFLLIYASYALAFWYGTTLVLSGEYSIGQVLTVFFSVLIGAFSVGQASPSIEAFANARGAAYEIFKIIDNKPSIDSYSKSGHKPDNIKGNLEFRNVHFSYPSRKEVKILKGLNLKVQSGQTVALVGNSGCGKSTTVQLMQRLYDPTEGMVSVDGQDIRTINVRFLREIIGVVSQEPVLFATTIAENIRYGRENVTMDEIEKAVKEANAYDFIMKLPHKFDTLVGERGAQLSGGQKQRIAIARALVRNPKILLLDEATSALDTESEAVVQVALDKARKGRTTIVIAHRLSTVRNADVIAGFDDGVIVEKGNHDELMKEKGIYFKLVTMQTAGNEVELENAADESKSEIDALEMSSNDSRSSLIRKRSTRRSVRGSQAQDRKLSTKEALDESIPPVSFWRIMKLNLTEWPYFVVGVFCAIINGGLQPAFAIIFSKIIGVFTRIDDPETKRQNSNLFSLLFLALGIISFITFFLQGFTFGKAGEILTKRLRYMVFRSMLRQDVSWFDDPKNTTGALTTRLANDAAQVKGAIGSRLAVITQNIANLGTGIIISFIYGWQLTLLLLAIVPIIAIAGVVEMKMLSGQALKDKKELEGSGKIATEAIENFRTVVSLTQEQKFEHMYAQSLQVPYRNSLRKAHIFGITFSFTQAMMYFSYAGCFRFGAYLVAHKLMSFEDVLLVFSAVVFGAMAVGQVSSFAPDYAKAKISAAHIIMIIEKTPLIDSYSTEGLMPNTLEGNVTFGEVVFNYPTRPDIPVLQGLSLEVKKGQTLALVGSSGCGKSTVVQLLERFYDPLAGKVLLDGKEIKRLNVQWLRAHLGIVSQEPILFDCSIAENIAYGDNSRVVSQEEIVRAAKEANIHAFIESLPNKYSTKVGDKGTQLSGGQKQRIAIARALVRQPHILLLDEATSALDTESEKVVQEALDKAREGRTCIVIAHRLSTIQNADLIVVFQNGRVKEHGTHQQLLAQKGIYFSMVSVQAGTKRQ
The test system of a further series is HEK293-MOCK cells. The series is described as follows: Uptake by MOCK (empty vector) HEK293 cells. The settings on record: TET 5 μM, 5 min. The procedure: Expressing OATP1B1/OATP1B3 or MOCK HEK293 cells were utilized to evaluate whether TET is a substrate of these two SLC transporters. Cell culture was performed as mentioned above. Cells were seeded on 96-well plates at the density of 0.8 × 10^5 cells/well. The culture medium was replaced with a medium containing 5 mM sodium butyrate for 24 h before the transport study to enhance the expression of transporters. For the transport assay, the DMEM media were removed and the cells were washed with pre-warmed Krebs–Henseleit buffer twice (0.1 mL/well). The second washing buffer was kept in the wells and the plate was incubated at 37 °C for 5 min before the uptake assay was initiated. […] The incubation solution was removed and the cells were washed with ice-cold transportation buffer three times (0.1 mL/well). A total of 0.1 mL pure water was added to each well to lyse the cells by repeated freezing and thawing (−196 °C–37 °C, three times). The cell lysate was collected and stored at −40 °C for LC-MS/MS analysis and protein measurement.
In the uptake study of TET by OATP1B1 and OATP1B3 expressing the HEK293 cell line, the uptake clearance (U) of the substrate was calculated according to Equation (5), the transporter-mediated uptake ratio (UR) was calculated by dividing the uptake clearance from transporter-expressing cells to that from the mock cells according to Equation (6), and the inhibition ratio (IR) was calculated according to Equation (7), where p represents the protein content and T is the duration of the incubation time. (5) U=Clysate/p×T (6) UR=U/UMOCK (7) IR=(1−Uwith inhibitor−Umock with inhibitor/Uwithout inhibitor−Umock without inhibitor)×100

As usually defined, the Papp A→B is the apparent permeability from the apical to the basolateral side of a cell layer. By Papp B→A is commonly meant how fast a substance crosses the layer from the basolateral side. One may read the efflux ratio as the permeability from basolateral to apical divided by that in the opposite direction, in the common usage. Take `COc1ccc2cc1Oc1ccc(cc1)C[C@H]1c3cc(c(OC)cc3CCN1C)Oc1c(OC)c(OC)cc3c1[C@H](C2)N(C)CC3` [TET, Tetrandrine]: the Papp A→B at 2 h in series [1] came out at 1.22 ± 0.07 ×10⁻⁶ cm/s; on MDR1 (P-gp), 0.52 ± 0.19 ×10⁻⁶ cm/s. In addition, the apparent permeability from basolateral to apical (Papp B→A) at 2 h in series [1] turned out to be 3.83 ± 0.12 ×10⁻⁶ cm/s; on MDR1 (P-gp) (human, LLC-PK1), 14 ± 2.95 ×10⁻⁶ cm/s. Also, the efflux ratio at 2 h in series [1] (LLC-PK1) is 3.13; at MDR1 (P-gp) (human, LLC-PK1), 32.5. Moreover, the “Uptake Clearance” value in the series on HEK293-MOCK cells (MOCK (OATP1B1 set)) was 131 ± 11.3 nM/min/mg Protein; in the series with HEK293-MOCK cells (MOCK (OATP1B3 set)) it was 126 ± 10.9 nM/min/mg Protein; with HEK293-MOCK cells (MOCK+RIF (OATP1B1 set)), 117 ± 12.8 nM/min/mg Protein; in the series on HEK293-MOCK cells (MOCK+RIF (OATP1B3 set)), 119 ± 8.03 nM/min/mg Protein.
